Measurements: ChEMBL document CHEMBL3885861, “Open TG-GATES”

Organism: Rattus norvegicus
Experiment: Open TG-GATES - Regimen: Single
Format: toxicity, organism-based, Sprague-Dawley
Design: regimen Single, gender Male, age 6 weeks
Conditions: in vivo, po, 60 mg/kg, route gavage, dose level Low; for APTT / Bas / Eos / Fbg / Hb / Ht / Lym / MCH / MCHC / MCV / Mono / Neu / PT / Plat / RBC / Ret / WBC: tissue Blood; for KIDNEY_L / KIDNEY_R / KIDNEY_TOTAL: tissue Kidney; for LIVER: tissue Liver; for A/G / ALP / ALT / AST / BUN / CRE / Ca / Cl / DBIL / GLC / IP / K / LDH / Na / PL / RALB / TBIL / TC / TG / TP / gamma-GTP: tissue Plasma

## C[C@](N)(Cc1ccc(O)c(O)c1)C(=O)O [METHYLDOPA]
3 h
  TERMINAL_BW: 185.6 g
  APTT: 17.5 s
  Bas: 0%
  Eos: 0.6%
  Fbg: 265.2 mg/dL
  Hb: 12.9 g/dL
  Ht: 38.4%
  Lym: 79%
  MCH: 21.9 pg
  MCHC: 33.5%
  MCV: 65.4 fL
  Mono: 3.2%
  Neu: 16.6%
  PT: 12.5 s
  Plat: 123.5 x10_4/uL
  RBC: 587 x10_4/ul
  Ret: 10.7%
  WBC: 81.1 x10_2/uL
  KIDNEY_L: 0.8 g
  KIDNEY_R: 0.8 g
  KIDNEY_TOTAL: 1.6 g
  LIVER: 7.8 g
  A/G: 0.9
  ALP: 1439.4 IU/L
  ALT: 54.2 IU/L
  AST: 80 IU/L
  BUN: 9 mg/dL
  CRE: 0.1 mg/dL
  Ca: 11.5 mg/dL
  Cl: 107.2 meq/L
  DBIL: 0.02 mg/dL
  GLC: 186 mg/dL
  IP: 10.1 mg/dL
  K: 4.4 meq/L
  LDH: 60.4 IU/L
  Na: 143.8 meq/L
  PL: 142.8 mg/dL
  RALB: 2.6 g/dL
  TBIL: 0.078 mg/dL
  TC: 82.2 mg/dL
  TG: 70.2 mg/dL
  TP: 5.5 g/dL
  gamma-GTP: 1.4 IU/L
6 h
  TERMINAL_BW: 189.2 g
  APTT: 16.7 s
  Bas: 0%
  Eos: 1%
  Fbg: 250.4 mg/dL
  Hb: 13 g/dL
  Ht: 38.6%
  Lym: 78.8%
  MCH: 21.7 pg
  MCHC: 33.6%
  MCV: 64.8 fL
  Mono: 3.2%
  Neu: 16.2%
  PT: 12.4 s
  Plat: 117 x10_4/uL
  RBC: 596.4 x10_4/ul
  Ret: 10.3%
  WBC: 64 x10_2/uL
  KIDNEY_L: 0.8 g
  KIDNEY_R: 0.8 g
  KIDNEY_TOTAL: 1.6 g
  LIVER: 7.6 g
  A/G: 0.9
  ALP: 1752.4 IU/L
  ALT: 50.2 IU/L
  AST: 82 IU/L
  BUN: 6.4 mg/dL
  CRE: 0.2 mg/dL
  Ca: 11.2 mg/dL
  Cl: 107.6 meq/L
  DBIL: 0.008 mg/dL
  GLC: 184 mg/dL
  IP: 11.4 mg/dL
  K: 4.7 meq/L
  LDH: 49.8 IU/L
  Na: 144.2 meq/L
  PL: 125.8 mg/dL
  RALB: 2.5 g/dL
  TBIL: 0.064 mg/dL
  TC: 79 mg/dL
  TG: 45.6 mg/dL
  TP: 5.4 g/dL
  gamma-GTP: 1 IU/L
9 h
  TERMINAL_BW: 187.5 g
  APTT: 17.1 s
  Bas: 0%
  Eos: 0.8%
  Fbg: 248.8 mg/dL
  Hb: 12.8 g/dL
  Ht: 37.7%
  Lym: 74.4%
  MCH: 22 pg
  MCHC: 34%
  MCV: 64.7 fL
  Mono: 2.6%
  Neu: 21.2%
  PT: 12.4 s
  Plat: 117.7 x10_4/uL
  RBC: 583 x10_4/ul
  Ret: 10%
  WBC: 65.1 x10_2/uL
  KIDNEY_L: 0.8 g
  KIDNEY_R: 0.8 g
  KIDNEY_TOTAL: 1.6 g
  LIVER: 7.1 g
  A/G: 0.9
  ALP: 1707.4 IU/L
  ALT: 47 IU/L
  AST: 75.6 IU/L
  BUN: 10.6 mg/dL
  CRE: 0.1 mg/dL
  Ca: 11 mg/dL
  Cl: 107.4 meq/L
  DBIL: 0.008 mg/dL
  GLC: 201.2 mg/dL
  IP: 10.6 mg/dL
  K: 4.5 meq/L
  LDH: 51.4 IU/L
  Na: 144.2 meq/L
  PL: 111.8 mg/dL
  RALB: 2.5 g/dL
  TBIL: 0.064 mg/dL
  TC: 71.2 mg/dL
  TG: 32.4 mg/dL
  TP: 5.2 g/dL
  gamma-GTP: 1 IU/L
24 h
  TERMINAL_BW: 194.5 g
  APTT: 18.6 s
  Bas: 0%
  Eos: 1.2%
  Fbg: 242.4 mg/dL
  Hb: 13.1 g/dL
  Ht: 38.9%
  Lym: 78.4%
  MCH: 21.4 pg
  MCHC: 33.7%
  MCV: 63.6 fL
  Mono: 2.8%
  Neu: 17.4%
  PT: 12.6 s
  Plat: 115.8 x10_4/uL
  RBC: 612.6 x10_4/ul
  Ret: 9.4%
  WBC: 81.6 x10_2/uL
  KIDNEY_L: 0.8 g
  KIDNEY_R: 0.8 g
  KIDNEY_TOTAL: 1.6 g
  LIVER: 9.2 g
  A/G: 0.9
  ALP: 1854.6 IU/L
  ALT: 52 IU/L
  AST: 81.2 IU/L
  BUN: 15.6 mg/dL
  CRE: 0.2 mg/dL
  Ca: 11.4 mg/dL
  Cl: 108 meq/L
  DBIL: 0.016 mg/dL
  GLC: 189.8 mg/dL
  IP: 8 mg/dL
  K: 4.5 meq/L
  LDH: 98.4 IU/L
  Na: 143.6 meq/L
  PL: 136.2 mg/dL
  RALB: 2.6 g/dL
  TBIL: 0.064 mg/dL
  TC: 71.4 mg/dL
  TG: 85.4 mg/dL
  TP: 5.5 g/dL
  gamma-GTP: 1 IU/L
